Test results from US20240197729A1, “ALK-5 Inhibitors and Uses Thereof” (Sumitomo Pharma Oncology, Inc., priority 2021, published 2024).

Columns and labels:
A549 lung fibroblasts = assay: Epithelial to mesenchymal transition gene expression in A549; type: cell-based; conditions: 5 ng/ml TGF-beta1, 48 h, up to 5 micromolar
Method: To evaluate whether Compounds 01 and 04 could inhibit epithelial to mesenchymal transition (EMT), an in vitro model using A549 lung fibroblasts was utilized. A549 cells were purchased from ATCC (CCL-185), and grown in RPMI media supplemented with 10 percent fetal bovine serum (FBS). On the day of the experiment, ten thousand A549 cells were seeded in eighty microliters total volume into a flat, tissue culture coated, ninety-six-well plate. Drugs, including positive control compounds vactosertib, PF-06952229 and LY3200882, were added in an eight point, one to three dilution series with the highest concentration of each drug being five micromolar, bringing the total volume of each well to ninety microliters. DMSO, which served to dissolve the 10 millimolar stock solution of each drug, was normalized across all wells After one hour of drug pretreatment, recombinant human TGF-beta1 was added to a final concentration of five nanograms per milliliter, bringing the volume to one hundred microliters. Recombinant human TGF-beta 1 was purchased from R&D Systems (7754-BH-005) and its stock solution was prepared according to manufacturer's instructions and diluted in RPMI media supplemented with 10% FBS. The ninety-six well plate with one hundred microliter volume was incubated at 37° C. at 5% CO2 for forty-eight hours. At the end of the incubation period, gene expression levels of various EMT markers were assessed using a custom designed QuantiGene Plex Gene Expression Assay. The genes chosen were CDH1 (E-cadherin), CDH2 (N-Cadherin), SNAI1 (Snail), SNAI2 (Slug), VIM (Vimentin), SPARC, GALNT6, CTNNB1 (beta-catenin), TGFB1, and MAML3.
Briefly, cell lysate was prepared using the QuantiGene Sample Processing Kit —Cultured Cells (QS0100) in the ninety-six well plate. Cell lysates were then subjected to bead hybridization, multiple probe hybridization steps and SAPE labeling following manufacturer's instruction. The plate was read on a Luminex MAGPIX instrument.

[1] = tested on: bleomycin-induced lung fibrosis; assay: Bleomycin-induced lung fibrosis study; type: in vivo, mice; conditions: for formation of fibrosis, Masson's trichrome stained lung tissue: 25 or 50 mg/kg BID, responding animals; for Ashcroft score, group comparison to the bleomycin/vehicle group: all doses, five animals per group
Method: The most common animal model of pulmonary fibrosis is the bleomycin-induced lung fibrosis model in rodents. This model is commonly used to investigate biology and potential therapies for fibrotic diseases affecting the lung, such as idiopathic pulmonary fibrosis (IPF). Bleomycin, a cytotoxic drug, is administered to mice or rats and causes direct cell injury triggered by DNA strand breaks, which leads to an overproduction of reactive oxygen species causing inflammation, pulmonary toxicity, activation of fibroblasts and subsequent fibrosis. Fibrosis is hallmarked by aberrant activation of lung epithelial cells and accumulation of fibroblasts and myofibroblasts with excessive production of extracellular matrix such as collagen. To test the ability of Compound 01 and Compound 04 to reduce fibrosis in vivo, a bleomycin induced lung fibrosis model in mice was utilized and endpoints such as lung hydroxyproline levels, a surrogate marker of collagen and fibrosis, and histological scoring of fibrosis were performed.
For this study, male C57BL/6J mice approximately 6 to 7 weeks old (purchased from Charles River) were weighed on the day prior to study day 0 to establish a baseline. All study arms contained sixteen total animals, except the sham/vehicle group, which contained 10 animals. All animals, except the sham/vehicle group were dosed intranasally with 4 international units per kilogram bleomycin in the morning of day 1 of the study. Bleomycin was prepared in a solution of 0.9 percent sodium chloride. All drugs were prepared in 10 percent Tween 20. Starting in the evening on day 1 of the study, one dose of Compound 04 or Compound 01 was given at either twenty-five or fifty milligrams per kilogram per oral gavage. For all subsequent days of the twenty-one day study, animals were dosed twice a day per oral gavage with either twenty-five or fifty milligram per kilogram of Compound 04 or Compound 01. At day twenty-one, the lungs were harvested and either snap frozen or fixed in paraformaldehyde. The left lobe of the lungs was subjected to hydroxyproline quantification, which was used as a biomarker of fibrosis and total collagen. The remaining lung tissue was fixed in paraformaldehyde to be processed for histological examination following hematoxylin-eosin (H&E) and Masson trichrome staining. […]. Clinical observations were recorded daily.

| Compound | CDH1 (E-Cadherin) gene expression (A549 lung fibroblasts) | expression of the nine genes induced with EMT (CDH2, SNAI1, SNAI2, VIM, SPARC, GALNT6, CTNNB1, TGFB1, MAML3) (A549 lung fibroblasts) | formation of fibrosis, Masson's trichrome stained lung tissue [1] | Ashcroft score, group comparison to the bleomycin/vehicle group [1] |
| --- | --- | --- | --- | --- |
| Clc1cccc2c(Nc3ccnc(Nc4cccc(N5CCOCC5)c4)c3)cnnc12 [Compound 04, N4-(8-chlorocinnolin-4-yl)-N2-[3-(morpholin-4-yl)phenyl]pyridine-2,4-diamine] | inhibition of downregulation of CDH1 (E-Cadherin) | inhibition of induction of the nine genes that are induced with EMT | reduced the formation of fibrosis | not statistically significant |
| Cc1nn(CC(F)(F)F)cc1Nc1cc(Nc2cnnc3c(C)cccc23)ccn1 [Compound 01, N2-[3-methyl-1-(2,2,2-trifluoroethyl)-1H-pyrazol-4-yl]-N4-(8-methylcinnolin-4-yl)pyridine-2,4-diamine] | inhibition of downregulation of CDH1 (E-Cadherin) | inhibition of induction of the nine genes that are induced with EMT | reduced the formation of fibrosis | not statistically significant |
